Test results from ChEMBL document CHEMBL1151694, “Efficient synthesis and biological evaluation of two modafinil analogues” (2008).
Activity calls are given as the source filed them. The calls are words filed in the database; no cut-off is given here.

Legend:
Cortex [1] = assay: Effect on spontaneous [3H]5HT […] in Sprague-Dawley rat brain cortical slices at 0.1 to 30 uM measured after 45 mins of superfusion; format: functional, tissue-based
Cortex [2] = assay: Effect on electrically-evoked [3H]5HT […] in Sprague-Dawley rat brain cortical slices administered 15 mins before electrical challenge after 85 mins of superfusion relative to control; format: functional, tissue-based
Cortex [3] = assay: Effect on electrically-evoked [3H]5HT […] in Sprague-Dawley rat brain cortical slices administered 15 mins before electrical challenge at 100 uM after 85 mins of superfusion relative to control; format: functional, tissue-based
Cortex [4] = assay: Effect on spontaneous [3H]5HT […] in Sprague-Dawley rat brain cortical slices at 0.1 to 100 uM measured after 45 mins of superfusion; format: functional, tissue-based
Cortex [5] = assay: Effect on electrically-evoked [3H]5HT […] in Sprague-Dawley rat brain cortical slices administered 15 mins before electrical challenge at 30 uM after 85 mins of superfusion relative to control; format: functional
Cortex [6] = assay: Effect on spontaneous [3H]5HT […] in Sprague-Dawley rat brain cortical slices at 1 to 30 uM measured after 45 mins of superfusion; format: functional, tissue-based

Compound: CC(C)NC(=O)CC(=O)C(c1ccccc1)c1ccccc1
- Activity (Cortex [1]): inactive
- Activity (Cortex [2]): Dose-dependent effect

Compound: NC(=O)CC(=O)C(c1ccccc1)c1ccccc1
- Activity (Cortex [3]): Active
- Activity (Cortex [4]): inactive

Compound: NC(=O)C[S+]([O-])C(c1ccccc1)c1ccccc1 (configuration not stated) [MODAFINIL]
- Activity (Cortex [2]): Dose-dependent effect
- Activity (Cortex [5]): 217%
- Activity (Cortex [6]): inactive
